We go through two molecules from PubChem BioAssay (NCI).

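Protocol summary: plate cells (96-well), add compound at 5 concentrations, incubate 48 h, interpolate endpoints linearly. At the GI50, growth is halved. Definition used: TGI = concentration required for complete inhibition of growth.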

Some test systems named below: RXF 393 renal; KM12 colon; UACC-257 melanoma; HT29 colon; OVCAR-8 ovarian; HL-60(TB) leukemia; NCI-H23 lung; HOP-62 NSCLC; LOX IMVI melanoma; CCRF-CEM leukemia; HCC-2998 colon; MALME-3M melanoma; SF-268 CNS; HCT-15 colon; NCI-H226 lung; NCI-H460 lung; SK-MEL-2 melanoma; SK-MEL-28 melanoma; OVCAR-3 ovarian.
Test in all cases: NCI tumour cell line growth inhibition, 48 h

As to `O=C(N/N=C/c1cc(Br)cc(Br)c1[O-])c1ccccc1O.O=C(N/N=C/c1cc(Br)cc(Br)c1[O-])c1ccccc1O.[Cu+2]`, the TGI with RXF 393 renal was found to be 0.926 µM; with KM12 colon, 1.98 µM; in the assay on UACC-257 melanoma, 1.74 µM; in the assay with HT29 colon, 2.5 µM; in the assay on OVCAR-8 ovarian, 1.38 µM; with HL-60(TB) leukemia it was 0.359 µM. Moreover, the TGI with NCI-H23 lung came to 0.484 µM; in the assay on HOP-62 NSCLC it was 0.845 µM; in the assay with LOX IMVI melanoma, 1.61 µM; in the assay on CCRF-CEM leukemia, 4.54 µM; in the assay with HCC-2998 colon, 1.48 µM; in the assay with MALME-3M melanoma, 1.35 µM. Besides, the TGI in the assay with SF-268 CNS is 2.51 µM; with HCT-15 colon it was 1.77 µM; in the assay on NCI-H226 lung, 1.98 µM; in the assay with NCI-H460 lung it was 13.6 µM; in the assay on SK-MEL-2 melanoma it was 1.93 µM; with SK-MEL-28 melanoma, 2.01 µM. Besides, the TGI with OVCAR-3 ovarian was determined as 0.702 µM. For the same molecule, in the assay on CCRF-CEM leukemia, the GI50 was 0.446 µM.
Consider `CN1C2CCC1CC(C)(O)C2` (centres undefined), for which the TGI in the assay with RXF 393 renal, with KM12 colon, in the assay with UACC-257 melanoma, in the assay with HT29 colon, in the assay on OVCAR-8 ovarian and in the assay on HL-60(TB) leukemia was more than 100 µM in each case. Moreover, the TGI in the assay on NCI-H23 lung, in the assay with HOP-62 NSCLC, with LOX IMVI melanoma, in the assay with CCRF-CEM leukemia, in the assay with HCC-2998 colon and with MALME-3M melanoma was more than 100 µM in each case. The TGI with SF-268 CNS, with HCT-15 colon, in the assay with NCI-H226 lung, in the assay on NCI-H460 lung, with SK-MEL-2 melanoma and in the assay with SK-MEL-28 melanoma was more than 100 µM in each case. Moreover, in the assay on OVCAR-3 ovarian, the TGI is more than 100 µM.
